# Measurements reported in patent US20250011881A1, “MYC-HSF1 DUAL AMPLIFICATION AS A BIOMARKER FOR CANCER TREATMENT” (The Trustees of Indiana University, priority 2023, published 2025).
# “And” between values parts separate entries of the source, which are not always exact repeats. Equal values may be shown once.
# What was measured:
# [1] = tested on: MYC and HSF1 protein in OVCAR8 cells; assay: Immunoblot of MYC and HSF1 after entinostat; format: cell-based; conditions: OVCAR8, 24 hours
# Protocol: FIG. 6C and FIG. 6D are immunoblots of OVCAR8 cells treated with entinostat at the indicated doses for 24 hours. Total protein from the cells was subjected to immunoblotting with the indicated antibodies.
# Immunoblotting and co-immunoprecipitation was performed as described above. Antibodies for immunoblotting and immunoprecipitation included MYC (CST), HSF1 (CST), GAPDH (CST). […] Through the innovative method of screening potential therapeutics against cells having dual amplification of MYC and HSF1, Applicant was able to identify potential therapeutic targets, HDAC inhibitors, and therapeutics having increased efficacy against these cancer cells.
# [2] = tested on: ovarian cancer cells with (OVCAR8, OVCAR4) or without (OVSAHO, CAOV3) MYC-HSF1 amplification; assay: Epigenetic inhibitor drug screen, cell viability (Cell Titer Blue); format: cell-based; conditions: 10 uM, 48 hrs, average relative cell viability (vs 1% DMSO) of non-amplified cells (OVSAHO, CAOV3) minus that of MYC-HSF1 amplified cells (OVCAR8, OVCAR4), positive = greater response in amplified cells, 10 µM
# [3] = tested on: HSF1 and MYC target genes in OVCAR8; assay: RT-qPCR of HSF1 and MYC target genes after entinostat; format: cell-based; conditions: OVCAR8, 24 hrs
# Protocol: FIG. 6B is a bar graph depicting mRNA relative fold change in OVCAR8 cells treated with entinostat at the indicated doses for 24 hours. Total RNA from the cells was subjected to RT-qPCR or the indicated transcripts.
# Results of this screen indicated 45 of the top 54 hits were compounds that targeted histone deacetylases (HDACs). (Table 1). To test the effect of HDAC inhibitors on cell lines having dual copy number gain in both MYC and HSF1, we treated OVCAR8 (positive for MYC-HSF1 amplification) for 24 hrs with an HDAC inhibitor, etinostat. Total RNA from treated cells was subjected to RTqPCR. To conduct the RTqPCR, RNA was extracted from cells using an RNA isolation kit with DNAse treatment (Zymo). RNA was subjected to reverse transcription using RT Master Mix (Applied Biosystems). qPCR was performed with SYBR Green Master Mix (Applied Biosystems) using a QuantStudio3 (Applied Biosystems). Experiments were performed in biological triplicate and analyzed using the […].
# [4] = Body weight of tumor-bearing nude mice; format: in vivo; conditions: 15 or 20 mg/kg twice per week for five weeks
# Protocol: (§1) FIG. 5D represents OVCAR8 cells (5e5) grown in the flank of nude mice until a volume between 50-100 mm^3 were achieved. Mice were then randomized to receive either vehicle, 15mg/kg, or 20 mg/kg volasertib twice per week. Tumor volume was measured with calipers (FIG. 5D) and body weight was measured (FIG. 5E) throughout the study.
# (§2) Lastly, we evaluated the efficacy of the PLK1 inhibitor, volasertib, on tumor growth in vivo. OVCAR8 cells (5e5) were injected into the flank of nude mice and tumors were allowed to develop until 50-100 mm^3. Mice then received either vehicle (PBS) or 15 or 20 mg/kg volasertib twice per week for five weeks. Body weight and tumor volume were measured twice per week.
# [5] = tested on: OVCAR8 cells in the flank of nude mice; assay: OVCAR8 flank tumor growth in nude mice; format: in vivo; conditions: 15 or 20 mg/kg twice per week for five weeks
# Protocol: as §1, §2
# ovarian cancer patients = conditions: cited from earlier work
# [6] = tested on: MYC-HSF1 dual amplified cells (OVCAR8, OVCAR4, SNU119); assay: Clonogenic growth assay; format: cell-based; conditions: 7 days, crystal violet
# Protocol: FIG. 5A depicts bar graphs showing clonogenic growth observed for OVCAR8, OVCAR4 and SNU119 cell lines subjected to the indicated dose of volasertib (BI-6727). Control cells were subjected to 1% DMSO instead of volasertib. Colonies were grown for 7 days prior to staining with crystal violet and quantification was completed with FIJI software.
# (§3) The effectiveness of volasertib on MYC-HSF1 dual amplified cancer cells was also analyzed in several cell growth models. […] Cell viability assays were performed with Cell Titer Blue (Promega) as we previously described (Carpenter et al. Oncotarget 2017;8:73947-63). Clonogenic growth assays were performed by seeding <1000 cells into 6-well plates and staining with crystal violet after 7 days of growth. Colonies were quantified using FIJI.
# [7] = tested on: MYC and HSF1 protein in OVCAR8 cells; assay: Immunoblot time course of MYC and HSF1 protein after volasertib; format: cell-based; conditions: OVCAR8, volasertib 1 nM, 0 to 18 hours
# Protocol: (§4) Considering PLK1 phosphorylation previously indicated affects the protein stability of MYC and HSF1, it was tested whether volasertib affects MYC or HSF1 protein levels. A time course study was performed where samples were treated with volasertib for time ranges of 0 to 18hours. […] Similarly, the effect of volasertib was tested on the activity of HSF1 using an HSE luciferase reporter.
# Immunoblotting and Immunoprecipitation: Immunoblotting and co-immunoprecipitation was performed as we have previously described (Lu et al., bioRxiv 2020:2020.08.31.275909). Antibodies for immunoblotting and immunoprecipitation included MYC (CST), HSF1 (CST), β-actin (CST), GAPDH (CST), FLAG (Sigma), and p-HSF1 (S326) (Abcam).
# [8] = tested on: cell lines without dual amplification (OVSAHO, CAOV3, PEO1, OVCAR3); assay: Volasertib IC50, cell viability, non-amplified cell lines; format: cell-based; conditions: average of OVSAHO, read-out: IC50 in non-amplified cells
# Protocol: (§5) PLK1 is an active therapeutic target with several compounds targeting this kinase inPLK1 inhibitor that has shown promise as an effective cancer therapy in early phase clinical trials (Rudolph et al. Clin Cancer Res 2009; 15:3094-102;Pujade-Lauraine et al. J Clin Oncol 2016;34:706-13; Xie et al. Am J Cancer Res 2015;5:3548-59). […] To assess whether a PLK1 inhibitor has specificity for MYC-HSFIdual-amplified ovarian cancer cells, the IC50 for volasertib was assessed in cell lines with dual amplification (OVCAR8, SNU119, OVCAR4, and COV362) and in cell lines without dual amplification (OVSAHO, CAOV3, PEO1, OVCAR3).
# as §3
# [9] = tested on: HSF1 activity in OVCAR8 cells; assay: HSE luciferase reporter assay; format: cell-based; conditions: OVCAR8, volasertib 1 nM, increasing time of treatment
# Protocol: FIG. 4E is a bar graph representing OVCAR8 cells subjected to HSE luciferase assay with treatment of volasertib (1 nM) for the indicated times.
# as §4
# Luciferase Reporter Assays: Luciferase reporter assays were performed as we previously described (Lu et al. bioRxiv 2020:2020.08.31.275909). The HSF1 activity reporter contains multiple heat shock element (HSE) motifs driving firefly luciferase. Experiments were performed with co-transfection of a constitutively active renilla reporter. Analysis was completed by dividing firefly activity by renilla activity.
# [10] = tested on: OVCAR8 (MYC-HSF1 co-amplified) cells; assay: Tumor spheroid growth, co-amplified cells; format: cell-based; conditions: OVCAR8, 7 days
# Protocol: FIG. 5B and FIG. 5C represent OVCAR8 (MYC-HSF1 co-amplified) and CAOV3 (non-amplified) cells subjected to tumor spheroid growth in the presence or absence of volasertib at the indicated doses. Spheroids were quantified by manual counting. The impact volasertib on spheroid growth in the two different cell lines is shown photographically (FIG. 5B) and graphically (FIG. 5C).
# Ovarian cancer cells (1000-2000) were seeded into 24-well ultra-low attachment plates (Corning) and grown in serum-free spheroid media as we previously described (Wang et al., Mol Cancer Ther 2021). Spheroids were grown in the presence or absence of volasertib for 7 days. Spheroids were quantified by manual counting.
# [11] = tested on: cell lines with dual amplification (OVCAR8, SNU119, OVCAR4, and COV362); assay: Volasertib IC50, cell viability, MYC-HSF1 dual amplified cell lines; format: cell-based
# Protocol: as §5, §3
# [12] = single agent, ovarian cancer patients
Compound,protein levels of MYC and HSF1 [1],"Non Amp - AMP (POC) 10 uM ([2]; listed as Entinostat (MS-275, SNDX-275)) [POC]",Non Amp - AMP (POC) 10 uM ([2]; listed as MS-275 (entinostat)) [POC],levels of HSF1 and MYC target genes (mRNA) [3],body weight [4],tumor growth in vivo [5],toxicity and safety for use in humans (ovarian cancer patients; early phase clinical trials),24-week disease control rate (ovarian cancer patients; [12]) [%],patients with partial responses (ovarian cancer patients; [12]) [%],"patients with progression-free survival for more than one year (ovarian cancer patients; single agent, none in patients receiving cytotoxic chemotherapy) [%]",clonogenic growth [6],MYC and HSF1 protein levels [7],IC50 [8] [µM],HSF1 activity (HSE luciferase reporter) [9],"spheroid growth, MYC-HSF1 dual amplified cells [10]","IC50 ([11]; average of OVCAR8, SNU119, OVCAR4, COV362, read-out: IC50 for volasertib in MYC-HSF1 dual amplified cells) [µM]","fold difference of IC50, non-amplified vs MYC-HSF1 dual amplified cells ([11]; enhanced efficacy in dual amplified ovarian cancer cells)"
Nc1ccccc1NC(=O)c1ccc(CNC(=O)OCc2cccnc2)cc1 [Entinostat],reduced protein levels of both MYC and HSF1,52.31,65.06,significantly reduced levels of HSF1 and MYC target genes,–,–,–,–,–,–,–,–,–,–,–,–,–
CC[C@@H]1C(=O)N(C)c2cnc(Nc3ccc(C(=O)N[C@H]4CC[C@H](N5CCN(CC6CC6)CC5)CC4)cc3OC)nc2N1C(C)C [volasertib],–,–,–,–,no change in body weight,strongly regress tumor growth,favorable toxicity and safety,30,13,11,strong inhibition of clonogenic growth,loss of MYC and HSF1 protein after 3hours of volasertib exposure,7.8,increasing inhibition of HSF1 activity,inhibit spheroid growth,0.033,> 200 fold and 200 fold
